This note sets out measurements from ChEMBL document CHEMBL1201862, “PubChem BioAssay data set” (2004).

Molecules are shown by their SMILES.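 In this assay, cells in 96-well plates receive the compound at five concentrations for 48 hours. Endpoints are linearly interpolated between the surrounding concentrations. The concentration for 50% growth inhibition is given as GI50.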 Calls of active or inactive are those of the source. Cut-off read from the data, not from the text of the source: active = GI50 up to about 1.1 µM and inactive = higher.

Among the test systems are A498; DLD-1; HCT-116; HOP-62; HOP-92; HT-29; IGROV-1; LOX IMVI; M14; NCI-H226; OVCAR-8; RXF 393; SF-268; SF-295; SK-MEL-28; SK-MEL-2; SW-620; U-251; SR; MDA-MB-231.
Common to all, as to assay: NCI tumour cell line growth inhibition, 48 h

On to `CCN(CC)CCNC(=O)c1cccc2cc3ccccc3nc12`, for which the GI50 with A498 is 6.92 µM (inactive); with DLD-1 it was 3.57 µM (inactive); in the test with HCT-116, 3.52 µM (inactive); in the test with HOP-62, 10.4 µM (inactive); in the test on HOP-92, 4.78 µM (inactive); in the test on HT-29, 3.95 µM (inactive). Also, the GI50 in the test on IGROV-1 was 5.2 µM (inactive); in the test with LOX IMVI, 5.57 µM (inactive); in the test on M14, 5.9 µM (inactive); in the test on NCI-H226, 4.18 µM (inactive); in the test with OVCAR-8, 6 µM (inactive); with RXF 393, 3.49 µM (inactive). The GI50 with SF-268 is 6.84 µM (inactive); in the test with SF-295, 7.23 µM (inactive); in the test on SK-MEL-28, 9.71 µM (inactive); with SK-MEL-2, 7.53 µM (inactive); in the test on SW-620 it was 3.49 µM (inactive); in the test with U-251 it was 5.01 µM (inactive).

`NNC(=O)C(=O)N/N=C(\CCCC(=O)Nc1ccc(Cl)cc1)CC(=O)c1ccc(F)cc1`: the GI50 with A498 was 2.66 µM (inactive); in the test with DLD-1, > 100 µM (inactive); in the test with HCT-116, > 100 µM (inactive); in the test with HOP-62, > 100 µM (inactive); with HOP-92 it was > 100 µM (inactive); with HT-29, 83.2 µM (inactive). Also, the GI50 in the test with IGROV-1 is > 100 µM (inactive); in the test with LOX IMVI, 13.9 µM (inactive); in the test with M14, 51.3 µM (inactive); in the test with NCI-H226, > 100 µM (inactive); with OVCAR-8 it was > 100 µM (inactive); in the test on RXF 393, > 100 µM (inactive). The GI50 with SF-268 was > 100 µM (inactive); in the test with SF-295 it was > 100 µM (inactive); with SK-MEL-28 it was > 100 µM (inactive); in the test with SK-MEL-2, 15.7 µM (inactive); with SW-620, > 100 µM (inactive); in the test with U-251 it was > 100 µM (inactive).

For `CN1CCc2c1nc(-c1ccc([N+](=O)[O-])cc1)c1c2N(C)CC1`, the GI50 is 43.2 µM (inactive) in the test on A498; 46.3 µM (inactive) in the test with DLD-1; 15.9 µM (inactive) in the test on HCT-116; 86.7 µM (inactive) in the test with HOP-62; 9.4 µM (inactive) in the test with HOP-92; 25.5 µM (inactive) in the test with HT-29. The GI50 in the test on IGROV-1 is > 100 µM (inactive); in the test with LOX IMVI, 44.2 µM (inactive); with M14, 77.6 µM (inactive); with OVCAR-8, > 100 µM (inactive); with RXF 393, 35.2 µM (inactive); with SF-268, > 100 µM (inactive). Further, the GI50 in the test on SF-295, in the test with SK-MEL-2, in the test on SW-620 and with U-251 was > 100 µM (inactive) in each case.

As to `COC(=O)CCC(=O)Nc1cc(C)ccc1C`, the GI50 in the test on A498, with DLD-1, in the test on HCT-116, with HOP-62, in the test with HOP-92 and with HT-29 was > 100 µM (inactive) in each case. In addition, the GI50 in the test with IGROV-1, with LOX IMVI, with M14, with NCI-H226, with OVCAR-8 and in the test with RXF 393 was > 100 µM (inactive) in each case. Moreover, the GI50 in the test with SF-295, in the test on SK-MEL-28, in the test on SK-MEL-2, with SW-620 and with U-251 was > 100 µM (inactive) each time.

As for `CC(=O)CCCCCCCCCCCC[C@@H]1CC[C@H](C)[C@H](O)N1`, the GI50 in the test with DLD-1 was > 100 µM (inactive); with HCT-116, > 100 µM (inactive); in the test with HOP-62, > 100 µM (inactive); in the test with HOP-92, > 100 µM (inactive); in the test with HT-29 it was 38.3 µM (inactive); in the test with IGROV-1 it was > 100 µM (inactive). In addition, the GI50 was 40.3 µM (inactive) with LOX IMVI; 53.5 µM (inactive) in the test with M14; > 100 µM (inactive) in the test with NCI-H226; > 100 µM (inactive) in the test on OVCAR-8; > 100 µM (inactive) in the test with RXF 393; > 100 µM (inactive) in the test on SF-268. Further, the GI50 with SF-295 is > 100 µM (inactive); in the test with SK-MEL-28, > 100 µM (inactive); in the test with SK-MEL-2, > 100 µM (inactive); with SR, 90.4 µM (inactive); in the test with SW-620, > 100 µM (inactive); with U-251 it was > 100 µM (inactive).

For `CCOC1CC2OC(=O)C1C=C2C(=O)OC` (centres undefined), the GI50 is > 100 µM (inactive) in the test on A498; 23 µM (inactive) with DLD-1; > 100 µM (inactive) with HOP-62; 32.7 µM (inactive) in the test with HOP-92; 37.5 µM (inactive) with HT-29; 46.6 µM (inactive) with IGROV-1. The GI50 in the test with LOX IMVI was 87.5 µM (inactive); in the test on M14 it was 18.5 µM (inactive); in the test on NCI-H226 it was 32.7 µM (inactive); in the test with SF-268 it was 28.9 µM (inactive); in the test on SF-295, > 100 µM (inactive); in the test on SK-MEL-28, 21 µM (inactive). The results for the GI50 in the test with SK-MEL-2, in the test on SW-620 and in the test on U-251 were 31.4 µM (inactive), 21.9 µM (inactive) and 50.1 µM (inactive), respectively.

Consider `OCc1ccc2[n+](c1)CCC1c3ccccc3NC21` (centres undefined), for which the GI50 is > 300 µM (inactive) in the test on DLD-1; > 300 µM (inactive) with HCT-116; > 300 µM (inactive) in the test on HOP-62; 230 µM (inactive) with HOP-92; > 300 µM (inactive) with HT-29; > 300 µM (inactive) in the test on IGROV-1. The GI50 is > 300 µM (inactive) in the test on LOX IMVI; > 300 µM (inactive) in the test on NCI-H226; > 300 µM (inactive) in the test with OVCAR-8; > 300 µM (inactive) in the test with RXF 393; 167 µM (inactive) with SF-268; > 300 µM (inactive) with SF-295. The GI50 in the test on SK-MEL-28, in the test with SK-MEL-2, with SR, in the test on SW-620 and in the test with U-251 was > 300 µM (inactive) in each case.

`CCN(CCCl)CCNc1c2ccccc2nc2ccc(OC)cc12`: the GI50 with A498 was 1.78 µM (inactive); in the test with DLD-1, 0.46 µM (active); in the test on HCT-116, 0.236 µM (active); in the test with HOP-62, 1.12 µM (active); in the test on HOP-92, 0.822 µM (active); with HT-29 it was 0.267 µM (active). Also, the GI50 with IGROV-1 was 0.463 µM (active); with LOX IMVI, 0.31 µM (active); in the test on M14, 1.18 µM (inactive); in the test on NCI-H226, 0.6 µM (active); with OVCAR-8, 0.263 µM (active); in the test with RXF 393 it was 0.54 µM (active). Also, the GI50 with SF-268 is 0.454 µM (active); in the test with SF-295 it was 0.766 µM (active); with SK-MEL-28, 1.52 µM (inactive); in the test on SK-MEL-2 it was 1.03 µM (active); with SW-620, 0.132 µM (active); in the test on U-251, 0.906 µM (active).

For the molecule `CC1=COC2=C(C)C(=O)C(=O)c3c(C)ccc1c32` [MANSONONE F], the GI50 with A498 is 20.1 µM (inactive); with HCT-116, 2.61 µM (inactive); in the test on HOP-62, 4.52 µM (inactive); in the test with HOP-92 it was 15.6 µM (inactive); in the test on HT-29, 3.15 µM (inactive); in the test on IGROV-1, 3.74 µM (inactive). The GI50 is 3.66 µM (inactive) in the test on LOX IMVI; 2.86 µM (inactive) in the test with M14; 3.28 µM (inactive) in the test with MDA-MB-231; 14.4 µM (inactive) in the test on NCI-H226; 2.7 µM (inactive) in the test with OVCAR-8; 7.18 µM (inactive) in the test on RXF 393. For the same molecule, the GI50 with SF-268 is 4.44 µM (inactive); in the test on SF-295, 5.48 µM (inactive); in the test on SK-MEL-28 it was 14.2 µM (inactive); in the test on SK-MEL-2 it was 5.56 µM (inactive); in the test with SR, 3.45 µM (inactive); in the test on SW-620, 2.61 µM (inactive). The GI50 in the test on U-251 is 4.38 µM (inactive).

Regarding `COc1cc2oc(=O)ccc2cc1CC=C(C)C` [SUBEROSIN], the GI50 is 27.2 µM (inactive) with A498; 38.6 µM (inactive) in the test on HCT-116; > 100 µM (inactive) in the test on HOP-62; 18 µM (inactive) in the test on HOP-92; 22.6 µM (inactive) in the test on HT-29; 62.8 µM (inactive) with IGROV-1. Also, the GI50 in the test with LOX IMVI was 39.1 µM (inactive); with M14 it was > 10 µM (inactive); in the test on MDA-MB-231 it was 50.2 µM (inactive); in the test with NCI-H226, 29.6 µM (inactive); in the test with OVCAR-8 it was 44.6 µM (inactive); in the test on RXF 393, 16.9 µM (inactive). Besides, the GI50 was 47.8 µM (inactive) in the test with SF-268; 41.1 µM (inactive) in the test with SF-295; 76.4 µM (inactive) in the test on SK-MEL-28; 45.3 µM (inactive) in the test with SK-MEL-2; 21 µM (inactive) in the test on SR; 41.3 µM (inactive) in the test with SW-620. Moreover, the GI50 in the test with U-251 was 43.3 µM (inactive).

As for `OC[C@H]1O[C@@H](n2cnc3c(S)ncnc32)[C@H](O)[C@@H]1O` [THIOINOSINE], the GI50 with A498 was > 2200 µM (inactive); in the test on HCT-116, 2390 µM (inactive); with HOP-62, 2120 µM (inactive); in the test on HOP-92, 1050 µM (inactive); with HT-29 it was 2260 µM (inactive); in the test on IGROV-1, > 2180 µM (inactive). Moreover, the GI50 in the test on LOX IMVI was 1840 µM (inactive); in the test on M14, 2360 µM (inactive); in the test on MDA-MB-231 it was > 2500 µM (inactive); with NCI-H226, > 2500 µM (inactive); in the test on OVCAR-8, > 2440 µM (inactive); in the test with RXF 393, 2460 µM (inactive). Besides, the GI50 in the test with SF-268 is > 2500 µM (inactive); in the test with SF-295, > 2500 µM (inactive); in the test on SK-MEL-28, > 2500 µM (inactive); in the test with SK-MEL-2, 1490 µM (inactive); in the test on SR it was 1890 µM (inactive); with SW-620 it was > 2500 µM (inactive). Moreover, the GI50 in the test on U-251 is > 2450 µM (inactive).
